US20040247607A1, “Use of surfactants to stabilize oocysts” (priority 1999, published 2004)

Tested on: oocysts
Experiment: Evaluation of naturally derived surfactants for decreasing and preventing oocyst aggregation
Text: In one aspect, the present invention provides a method for evaluating the ability of a surfactant to prevent aggregation of oocysts, sporocysts, and/or sporozoites. The method comprises adding a surfactant to a composition that comprises oocysts, sporocysts, sporozoites, or any combination thereof, at a concentration sufficient to prevent aggregation of the oocysts, sporocysts, and/or sporozoites (i.e. a test concentration). The resulting composition is then agitated, for example, by shaking manually or via an automatic shaker. As previously described, agitating the composition exposes the oocysts, sporocysts, and/or sporozoites to air or other gases, and promotes aggregation. After agitation, the composition is evaluated to determine whether any aggregation has occurred. Preferably, evaluation occurs by visually observing the composition for the presence of aggregated oocysts, sporocysts, and/or sporozoites. […]
In another aspect, the present invention provides a method for evaluating the ability of a surfactant to reduce oocyst, sporocyst, and/or sporozoite aggregation. […] Upon addition of the surfactant, the resulting composition is agitated, as previously described, and then evaluated to determine whether the aggregation has been reduced or eliminated entirely by addition of the surfactant. […]

Substance	decreasing and preventing aggregation of oocysts
casein	effective
serum albumin	effective
